Data as given in PubChem BioAssay AID743308 (Sanford-Burnham Center for Chemical Genomics, 2014).
pIC50: −log10 of the molar value.

Target: Low molecular weight phosphotyrosine protein phosphatase (Homo sapiens) (UniProt P24666)
Experiment: inhibition of human LMPTP enzyme activity – biochemical, absorbance, pNPP substrate, LMPTP-A isoform, set 2, orthogonal assay, dose response (AID 743308)
Details: recombinant LMPTP-A

Sequence of Low molecular weight phosphotyrosine protein phosphatase (Homo sapiens) (P24666 whole entry, looked up, canonical isoform): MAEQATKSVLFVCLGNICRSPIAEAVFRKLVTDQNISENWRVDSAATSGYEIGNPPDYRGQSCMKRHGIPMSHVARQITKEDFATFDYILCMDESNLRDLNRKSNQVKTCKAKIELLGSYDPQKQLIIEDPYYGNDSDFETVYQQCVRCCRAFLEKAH

pIC50: 5.45
SMILES: COc1ccc(-c2cc(NCCCN3CCCCC3)c3ccccc3n2)cc1
